The results in this text go back to patent publication US9309243B2, “Imidazopyridine derivatives as modulators of TNF activity” (UCB Biopharma SPRL, priority 2012, dated 2016).

Broadly, the melting point is the temperature, or range, at which the solid turns liquid.

Take `Cc1nc2cc(F)c(-c3cnc(C4(O)COC4)nc3)cn2c1Cc1ccccc1OC(F)F` [Example 322, 3-[5-(3-{[2-(Difluoromethoxy)phenyl]methyl}-7-fluoro-2-methylimidazo[1,2-a]pyridin-6-yl)pyrimidin-2-yl]oxetan-3-ol]: the melting point was 143 to 144 °C.
